Source: patent US20240237649A1, “CRYSTALLINE FORMS OF 5-FLUORO-4-IMINO-3-METHYL-1-TOSYL-3,4-DIHYDROPYRIMIDIN-2-ONE, AND MIXTURES, COMPOSITIONS AND METHODS OF USE THEREOF” (Adama Makhteshim Ltd., priority 2021, published 2024)

Test: Chemical stability: concentration / degradation of compound of Formula I in compositions on storage
[1] = SC composition at pH 4, Table 12

Experimental: The amount of degradation permitted before the degradation is considered to be significant depends on the concentration of the active ingredients in the composition.
The physical and chemical stability of composition of Example 5 was tested under various conditions including CIPAC conditions.

In the case of `Cc1ccc(S(=O)(=O)n2cc(F)c(=N)n(C)c2=O)cc1` [Form III, 5-fluoro-4-imino-3-methyl-1-tosyl-3,4-dihydropyrimidin-2(1H)-one], the “stability in oil dispersion (OD) composition compared with suspension concentrate (SC) composition” value is reported as “more stable”.
For `Cc1ccc(S(=O)(=O)n2cc(F)c(=N)n(C)c2=O)cc1` [Hydrate I (45% Hydrate, and 55% Form I Polymorph)] [5-fluoro-4-imino-3-methyl-1-tosyl-3,4-dihydropyrimidin-2(1H)-one], the “% Water Content” value (total water in the composition, including free water and water in the hydrate) was 0.29%.
In the case of `Cc1ccc(S(=O)(=O)n2cc(F)c(=N)n(C)c2=O)cc1` [compound of Formula I, 5-fluoro-4-imino-3-methyl-1-tosyl-3,4-dihydropyrimidin-2(1H)-one], the “amount of the compound of Formula I in the composition, after decrease” value [1] is reported as 31.1 % by weight based on the total weight of the composition and the “amount of the compound of Formula I in the composition, before decrease” value [1] is reported as 44.4 % by weight based on the total weight of the composition.
